# Source: EP3390415B1, “(R)- AND (S)-1-(3-(3-N,N-DIMETHYLAMINOCARBONYL)PHENOXYL-4-NITROPHENYL)-1-ETHYL-N,N'-BIS (ETHYLENE)PHOSPHORAMIDATE, COMPOSITIONS AND METHODS FOR THEIR USE AND PREPARATION” (OBI PHARMA, INC., priority 2015, dated 2017)
# Like-named read-outs stand apart in the source and are kept apart here.
# How the values were obtained:
# [1] = system: MOLT-4; test: In vitro human tumor cell line cytotoxicity assay; format: cell-based; settings: read-out: RelIC50
# [2] = system: H460 cells; test: In vitro proliferation assay, H460; format: cell-based; settings: Homo sapiens, NCI-H460; 2 hrs exposure, wash, additional 70hrs, AlamarBlue; read-out: IC 50 in proliferation assay in H460 cells
# Procedure: In vitro proliferation data on the H460 […] human tumor cell line is reported above in the compound table. IC50 values are reported in micromolar and result from exposure of compound at various concentrations for 2 hrs followed by a wash step and addition of fresh media followed by growth and cell viability staining and comparison to a media only treated control.
# Specifically, exponentially growing cells were seeded at a density of 4 x 10^3 cells per well in a 96 well plate and incubated at 37°C in 5% CO2, 95% air and 100% relative humidity for 24 hours prior to addition of test compounds. Compounds were solubilized in 100% DMSO at 200 times the desired final test concentration. At the time of drug addition, compounds were further diluted to 4 times the desired final concentration with complete medium. Aliquots of 50 µl of compound at specified concentrations were added to microtiter wells already containing 150 µl of medium, resulting in the final drug concentration reported. After drug addition, the plates were incubated for an additional 2 hours at 37°C, 5% CO2, 95% air, and 100% relative humidity, then the drug was washed off and fresh medium was added and the plates were incubated for addition 70hrs at 37 °C, 5% CO2, 95% air and 100% relative humidity. At the end of this incubation, the viable cells were quantified using the AlamarBlue assay. The drug concentration resulting in growth inhibition of 50% (IC50) was calculated using Prism software (Irvine, CA), and the results were listed in the table.
# [3] = system: TE-5; test: In vitro human tumor cell line cytotoxicity assay; format: cell-based; settings: read-out: RelIC50
# Procedure: (§1) TH 2870, TH 3423 and TH 3424 was also tested in different cancer cell lines using the materials and procedures as follows. 10* cell lysate buffer (cell signaling technology, Cat. No.9803); Protease Inhibitor Cocktail for Mammalian Tissues (Sigma, Cat. No.P8340); Phosphatase Inhibitor Cocktails for Serine/Threonine Phosphatases and L-Isozymes of Alkaline Phosphatases (Sigma, Cat. No.P0044); Phosphatase Inhibitor Cocktails for Tyrosine Protein Phosphatases, Acid and Alkaline Phosphatases (Sigma, Cat. No.P5726); BCA kit (Thermo, Cat. No.23225); Primary antibody, mouse monoclonal AKR1C3 antibody (clone NP6.G6.A6; Sigma-Aldrich); Primary antibody, α-tubulin (clone B-5-1-2; Sigma-Aldrich); Secondary antibody, Goat-anti-Mouse IgG HRP conjugated (A4416; Sigma-Aldrich) were used. Cells were passaged two generations in good condition and digested. The appropriate number of cells were inoculated in 6-cm cell culture dishes, and incubated at 37°C, 5% CO2 overnight. When the cells were grown to 80% density, the dish was removed from incubator. The medium was aspirated, washed twice with ice-cold PBS, and residual PBS was removed. An appropriate volume of ice-cold 1* cell lysate was added and incubated on ice for 10 minutes. Cell lysate was transferred to microfuge tubes chilled in ice, 4 °C, 12,000 rpm and centrifuged for 15 minutes. Supernatant was transferred into another microcentrifuge tube. Cell lysates were diluted by a 10* cell lysates, and add Protease Inhibitor Cocktail for Mammalian Tissues (Sigma, # P8340), Phosphatase Inhibitor Cocktails for Serine / Threonine Phosphatases and L-Isozymes of Alkaline Phosphatases, Phosphatase Inhibitor Cocktails for Tyrosine Protein Phosphatases, Acid and Alkaline Phosphatases. The BCA protein quantification kit for protein quantification was used with 1* cell lysate to dilute the cell lysate to the same concentration. Corresponding samples were added on 5* SDS-loading buffer, heated to 85 °C for 10 minutes, and centrifuged briefly. The samples were saved at -20 °C or used directly for protein electrophoresis. Those samples were electrophoresed according to standard practice, transferred to a membrane, the primary antibodies and then secondary antibody were applied according to the manufacturer's instructions. Odyssey infrared laser imaging system was used to scan signals.
# (§2) The results are shown below in Figs. 3 and 4 and listed in the following tables: Table: TH 2870, TH 3423 and TH 3424 sensitivity in liver, prostate, esophageal cancer and leukemia cell lines
# [4] = system: OE 33; test: In vitro human tumor cell line cytotoxicity assay; format: cell-based; settings: OE33, read-out: RelIC50
# Procedure: as §1, §2
# [5] = system: THP-1_; test: In vitro human tumor cell line cytotoxicity assay; format: cell-based; settings: read-out: RelIC50
# Procedure: as §1, §2
# [6] = system: CCRF-CEM; test: In vitro human tumor cell line cytotoxicity assay; format: cell-based; settings: read-out: RelIC50
# Procedure: as §1, §2
# [7] = system: HL-60; test: In vitro human tumor cell line cytotoxicity assay; format: cell-based; settings: read-out: RelIC50
# Procedure: as §1, §2
# [8] = system: Mono-Mac-6_; test: In vitro human tumor cell line cytotoxicity assay; format: cell-based; settings: read-out: RelIC50
# Procedure: as §1, §2
# [9] = system: SUP-T1; test: In vitro human tumor cell line cytotoxicity assay; format: cell-based; settings: read-out: RelIC50
# Procedure: as §1, §2
# [10] = system: TE-11; test: In vitro human tumor cell line cytotoxicity assay; format: cell-based; settings: read-out: RelIC50
# Procedure: as §1, §2
# [11] = system: P116; test: In vitro human tumor cell line cytotoxicity assay; format: cell-based; settings: read-out: RelIC50
# Procedure: as §1, §2
# [12] = system: PF-382; test: In vitro human tumor cell line cytotoxicity assay; format: cell-based; settings: read-out: RelIC50
# Procedure: as §1, §2
# [13] = system: KYSE 510; test: In vitro human tumor cell line cytotoxicity assay; format: cell-based; settings: read-out: RelIC50
# Procedure: as §1, §2
# [14] = system: TE-15; test: In vitro human tumor cell line cytotoxicity assay; format: cell-based; settings: read-out: RelIC50
# Procedure: as §1, §2
# [15] = system: Reh 3; test: In vitro human tumor cell line cytotoxicity assay; format: cell-based; settings: read-out: RelIC50
# Procedure: as §1, §2
# [16] = system: ATN-1; test: In vitro human tumor cell line cytotoxicity assay; format: cell-based; settings: read-out: RelIC50
# Procedure: as §1, §2
# [17] = Body weight and toxicity in the orthotopic liver cancer mouse model; format: in vivo, athymic nude mice; settings: intra-peritoneal, low or high dose (2.5 and 5 mg/kg)
# [18] = system: TE-9; test: In vitro human tumor cell line cytotoxicity assay; format: cell-based; settings: read-out: RelIC50
# [19] = system: KYSE 270; test: In vitro human tumor cell line cytotoxicity assay; format: cell-based; settings: read-out: RelIC50
# [20] = system: Vcap; test: In vitro human tumor cell line cytotoxicity assay; format: cell-based; settings: for IC50: Homo sapiens, VCaP
# [21] = system: SNU-387; test: In vitro human tumor cell line cytotoxicity assay; format: cell-based; settings: for IC50: Homo sapiens
# [22] = system: T.T; test: In vitro human tumor cell line cytotoxicity assay; format: cell-based; settings: TT, read-out: RelIC50
# [23] = system: TE-8; test: In vitro human tumor cell line cytotoxicity assay; format: cell-based; settings: read-out: RelIC50
# [24] = system: TE-6; test: In vitro human tumor cell line cytotoxicity assay; format: cell-based; settings: read-out: RelIC50
# [25] = system: Jurkat, Clone E6-1; test: In vitro human tumor cell line cytotoxicity assay; format: cell-based; settings: read-out: RelIC50
smiles,measurement,setting,value
"C[C@H](OP(=O)(N1CC1)N1CC1)c1ccc([N+](=O)[O-])c(Oc2cccc(C(=O)N(C)C)c2)c1 (single isomer, unassigned) [TH3424]",IC50,[1],10 nM
same,IC50,[2],4 nM
same,IC50,[3],33 nM
same,IC50,[4],84 nM
same,IC50,[5],> 1000 nM
same,IC50,[6],3.7 nM
same,IC50,[7],3 nM
same,IC50,[8],> 1000 nM
same,IC50,[9],3 nM
same,IC50,[10],2.7 nM
same,IC50,[11],84 nM
same,IC50,[12],15 nM
same,IC50,[13],180 nM
same,IC50,[14],2.9 nM
same,IC50,[15],3 nM
same,IC50,[16],29.8 nM
same,toxicity to the experimental mice,[17],no obvious toxicity
same,toxicity to the experimental mice,[17]; listed as TH2870-2,no obvious acute toxicity
same,IC50,[18],11 nM
same,IC50,[19],270 nM
same,IC50,[20]; read-out: AbsIC50,14.8 nM
same,IC50,[20]; read-out: RelIC50,13.2 nM
same,Max Inhibition%,[20]; Vcap,101.4%
same,Min Inhibition%,[20]; Vcap,-13.2%
same,Max Inhibition%,[21],99.3%
same,Min Inhibition%,[21],-14.8%
same,IC50,[21]; read-out: AbsIC50,70.1 nM
same,IC50,[21]; read-out: RelIC50,58.7 nM
same,IC50,[22],6 nM
same,IC50,[23],19 nM
same,IC50,[24],21 nM
same,IC50,[25],24 nM
